Publication PMC10819767, “An ADAM10 Exosite Inhibitor Is Efficacious in an In Vivo Collagen-Induced Arthritis Model” (Pharmaceuticals, 2024)

Columns and labels:
ADAM10 = target: T1, ADAM10 (Homo sapiens, UniProt O14672); assay: ADAM10 enzyme assay with glycosylated substrate DM2; assay type: biochemical; conditions: for activity against ADAM10 (in words): SAR discussion
T1 construct: purchased R & D Systems (Minneapolis, MN, USA)
T1 sequence (O14672 214-748): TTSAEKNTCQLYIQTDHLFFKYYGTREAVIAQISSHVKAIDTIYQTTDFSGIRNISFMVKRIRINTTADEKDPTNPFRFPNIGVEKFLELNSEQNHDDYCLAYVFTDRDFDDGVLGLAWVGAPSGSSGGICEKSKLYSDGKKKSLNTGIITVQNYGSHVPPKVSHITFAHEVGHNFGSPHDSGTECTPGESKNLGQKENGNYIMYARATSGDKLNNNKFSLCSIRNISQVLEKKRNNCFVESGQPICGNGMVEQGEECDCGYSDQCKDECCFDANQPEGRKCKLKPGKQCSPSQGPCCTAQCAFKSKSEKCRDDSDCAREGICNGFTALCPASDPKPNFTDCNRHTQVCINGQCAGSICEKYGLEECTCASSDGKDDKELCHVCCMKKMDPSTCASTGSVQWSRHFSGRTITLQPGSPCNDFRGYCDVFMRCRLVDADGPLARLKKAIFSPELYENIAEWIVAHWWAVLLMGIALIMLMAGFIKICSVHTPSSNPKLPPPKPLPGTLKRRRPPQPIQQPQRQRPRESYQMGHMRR
Experimental: (§1) ADAM10 and ADAM17 assays. Both assays were performed as published previously by us. Briefly, both assays followed the same general protocol. In total, 5 μL of the 2× enzyme solution (20 nM) in an assay buffer (10 mM Hepes, 0.001% Brij-35, pH 7.5) were added to solid bottom black 384 plates (Nunc, ThermoFisher, Waltham, MA, USA, cat# 264705). Next, test compounds and pharmacological controls were added to the corresponding wells using a 384-pin tool device (V & P Scientific, San Diego, CA, USA). After 60 min of incubation at RT, the reactions were started via the addition of 5 μL of the 2× solutions of glycosylated substrate DM2 (20 μM). The reactions were incubated at RT for 2 h, after which the fluorescence was measured using a Biotek H1 multimode microplate imager (λexcitation = 360 nm, λemission = 460 nm). IC50 values were calculated by fitting normalized data to the sigmoidal log vs. the response equation utilizing a non-linear regression analysis from GraphPad Prizm 9.

ADAM17 = target: T2, ADAM17 (Homo sapiens, UniProt P78536); assay: ADAM17 enzyme assay with glycosylated substrate DM2; assay type: biochemical; conditions: for selectivity against ADAM17 (in words): ADAM10 vs ADAM17
T2 construct: purchased R & D Systems (Minneapolis, MN, USA)
Experimental: as §1

[1] = system: collagen-induced arthritis (CIA) model; assay: CIA mouse model: clinical arthritis score and paw swelling; assay type: in vivo, C57 BL/6 mice; conditions: indomethacin 2.5 mg/kg oral, scale 0–4
Experimental: In vivo efficacy in the CIA mouse model. All animal studies were conducted in accordance with NSU IACUC guidelines. Study protocol #2021.04.DM5 was approved by NSU IACUC before the commencement of the studies. CID 3117694 and indomethacin were ground with a small amount of the dispersing agent (0.5% HPMC (3 cP)–0.5% Tween 80) using a mortar and a pestle and mixed repeatedly to form a smooth paste. The paste was moved to a graduated cylinder and filled up to the required volume with the dispersing agent to form a suspension, as described elsewhere. The test compound (10, 30, and 50 mg/kg) and indomethacin (2.5 mg/kg) were administered with a mouse gavage needle (gauge no: 18, BD, catalog number: 653902) through the oral route as a suspension with a 5 mL/kg dose volume (from day 0 to day 28). In this study, 6–8-week-old C57 BL/6 mice from Charles River (male and female) were used. Animals were randomly assigned to one of the following six groups: (1) normal (non-RA control), (2) RA control untreated, (3) RA control treated with 2.5 mg/kg/day indomethacin, and 3 test groups (CID 3117694 (10 mg/kg/day, 30 mg/kg/day, and 50 mg/kg/day)) to provide an estimate for the lead compound’s efficacy range. Each group had three males and three females assigned to the control for gender-based differences. Arthritis was induced in the right paws of the mice under anaesthesia. The left paw of the mice was used as a control. A total of 10 µL collagen from bovine (type II collagen) nasal septum emulsion (2 mg/mL) was injected into the right knee joint with a glass Hamilton syringe and 25 G needles for intraarticular (i.a.) injection, followed by a total of 100 µL Complete Freund’s adjuvant (CFA) emulsion was injected at the back of mice using a syringe with 25 G needles subcutaneously (s.c.). On day 14 after the first injection, the mice were injected, i.e., with 10 µL of collagen from the bovine nasal septum ([…]) and s.c. with a 100 µL CFA emulsion for a boost injection. Arthritis progression was monitored using a clinical arthritis scoring system (0–4), and paw swelling was measured with the help of a plethysmograph on days 0, 14, 21, and 28 after the induction of arthritis. […] After the administration of a primary dose of collagen from the bovine nasal septum, CFA scoring was assessed. Measurements were taken on days 0, 14, 21, and 28 after the induction of arthritis in induced paws (right paw) and non-arthritis paws (left paw). CID 3117694 (10 mg/kg/day, 30 mg/kg/day, and 50 mg/kg/day) and pharmacological control (indomethacin 2.5 mg/kg/day) treatment were given every day for 28 days beginning from day 1 via oral gavage in hydroxy-propyl-methyl cellulose (HPMC) suspension.

TNFα = assay: RA serum marker ELISA, TNFα, CIA mice; assay type: in vivo, C57 BL/6 mice; conditions: CID 3117694 50 mg/kg/day; indomethacin 2.5 mg/kg
Experimental: (§2) The sample size for therapeutic evaluation was calculated using power analysis based on experimental data from similar studies. In a two-sided test and setting the α value at 0.05 and desired power at 0.95, the sample size turned out to be 5 per group. We also expected deaths during the experiments; therefore, we used the formula Nt = N/1-q, where Nt is the number of mice initially used, N is the number required at the end of the study, and q is the proportion of attrition, which is generally 10%. Thus, at the end of the study period, we expected to have data from at least 6 mice per group, which is enough to attain statistical significance if it exists. Data were analyzed using a one-way ANOVA followed by Dunnett’s test compared with the vehicle control. At the end of the study, the mice were anesthetized and sacrificed using CO2 euthanasia. The hind paws of the mice were subjected to a histopathological examination, and the serum was analyzed for CRP, TNF-α, IL-6, and IL-10, as described in the below sections.
(§3) RA serum marker analysis. Blood was collected from the tail vein, and 100 µL was used for the assays. All assays were conducted using the manufacturer’s instructions for the respective assay kits. The following assay kits were purchased: Mouse TNF-α GENLISA™ ELISA (Krishgen BioSystems cat#KB2145, Mumbai, India), Mouse IL-10 GENLISA™ ELISA (Krishgen BioSystems cat#KB2072), Mouse hsC-Reactive Protein, hs-CRP GENLISA™ ELISA (Krishgen BioSystems cat#KLM0318), Mouse IL-6 GENLISA™ ELISA (Krishgen BioSystems cat#KB2068).

C-reactive protein (CRP) = assay: RA serum marker ELISA, CRP, CIA mice; assay type: in vivo, C57 BL/6 mice; conditions: CID 3117694 50 mg/kg/day; indomethacin 2.5 mg/kg
Experimental: as §2, §3

IL-6 = assay: RA serum marker ELISA, IL-6, CIA mice; assay type: in vivo, C57 BL/6 mice; conditions: CID 3117694 50 mg/kg/day; indomethacin 2.5 mg/kg
Experimental: as §2, §3

IL-10 = assay: RA serum marker ELISA, IL-10, CIA mice; assay type: in vivo, C57 BL/6 mice; conditions: CID 3117694 50 mg/kg/day; indomethacin 2.5 mg/kg
Experimental: as §2, §3

[2] = system: articular joints affected by RA; assay: Histopathology (H & E) of arthritic joint, CIA mice; assay type: in vivo, C57 BL/6 mice; conditions: indomethacin 2.5 mg/kg/day
Experimental: as §2, with “sections. Histology. Limbs from euthanized animals were preserved in buffered formalin, decalcified, embedded, sectioned, and stained with hematoxylin and eosin (H & E). Microscopic images were acquired using the Lx 400 microscope (Labomed, Fremont, CA, USA).” for “sections.”

T2 sequence (P78536 215-824, species assumed): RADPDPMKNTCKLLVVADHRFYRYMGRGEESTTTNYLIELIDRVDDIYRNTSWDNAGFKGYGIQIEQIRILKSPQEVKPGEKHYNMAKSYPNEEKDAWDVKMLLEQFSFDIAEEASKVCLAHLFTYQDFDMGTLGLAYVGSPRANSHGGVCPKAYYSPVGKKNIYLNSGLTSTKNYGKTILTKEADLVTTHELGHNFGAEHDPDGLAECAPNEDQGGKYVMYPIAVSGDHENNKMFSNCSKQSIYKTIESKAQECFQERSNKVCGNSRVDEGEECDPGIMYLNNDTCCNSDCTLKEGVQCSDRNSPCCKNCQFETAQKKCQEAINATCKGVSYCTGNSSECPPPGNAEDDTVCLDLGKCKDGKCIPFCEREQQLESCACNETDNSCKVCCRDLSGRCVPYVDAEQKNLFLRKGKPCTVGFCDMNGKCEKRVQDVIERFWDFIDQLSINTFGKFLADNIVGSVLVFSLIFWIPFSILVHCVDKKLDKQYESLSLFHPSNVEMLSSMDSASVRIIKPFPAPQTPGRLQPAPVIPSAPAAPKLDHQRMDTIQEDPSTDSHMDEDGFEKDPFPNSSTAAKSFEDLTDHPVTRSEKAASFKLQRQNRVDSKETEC

CCc1ccc(NC(=O)C(=O)NNC(=O)c2ccc(C(C)(C)C)cc2)cc1 [CID 2113284]
IC50 (ADAM10): > 100 µM | IC50 (ADAM17): > 100 µM

Cc1ccc(NC(=O)C(=O)NNC(=O)c2ccc(C(C)(C)C)cc2)cc1Cl [CID 2213247]
IC50 (ADAM10): > 100 µM | IC50 (ADAM17): > 100 µM

Cc1c(Cl)cccc1NC(=O)C(=O)NNC(=O)c1ccc(C(C)(C)C)cc1 [CID 2218294]
IC50 (ADAM10): > 100 µM | IC50 (ADAM17): > 100 µM

COc1ccccc1NC(=O)C(=O)NNC(=O)c1ccccc1Cl [CID 2273473]
IC50 (ADAM10): 33 µM | activity against ADAM10 (in words) (ADAM10): reduced affinity | IC50 (ADAM17): 33 µM | selectivity against ADAM17 (in words) (ADAM17): no selectivity

Cc1ccccc1C(=O)NNC(=O)C(=O)Nc1cccc2ccccc12 [CID 2841765]
IC50 (ADAM10): 2.8 µM | activity against ADAM10 (in words) (ADAM10): retrieved the activity | IC50 (ADAM17): 2 µM | selectivity against ADAM17 (in words) (ADAM17): selectivity against ADAM17 was lost

Cc1ccccc1NC(=O)C(=O)NNC(=O)c1ccc(Cl)cc1 [CID 2869359]
IC50 (ADAM10): > 100 µM | activity against ADAM10 (in words) (ADAM10): did not rescue the activity | IC50 (ADAM17): > 100 µM

COc1ccc2c(c1)c(CC(=O)O)c(C)n2C(=O)c1ccc(Cl)cc1 [indomethacin, reference compound]
disease score ([1]; day 21): 2 | disease score ([1]; day 28): 1 | TNFα blood level vs healthy control (TNFα): the same as that of the healthy controls | CRP blood level vs healthy control (C-reactive protein (CRP)): the same as that of the healthy controls | IL-6 blood level vs healthy control (IL-6): the same as that of the healthy controls | IL-10 blood level vs healthy control (IL-10): the same as that of the healthy controls | histopathological findings (in words) [2]: presence of inflammation and hyperplasia | histopathological findings (in words) ([2]; listed as Indomethacin): only residual inflammation and hyperplasia
